{"source": "patent US20060276537A1", "about": "“Use of ladostigil for the treatment of multiple sclerosis” (priority 2005, published 2006)", "key": {"[1]": {"experiment": "Body weight of the EAE mice (Table 7)", "assay_type": "in vivo", "text": "These differences were statistically significant (p<0.000, Manova). According to the subsequent Post Hoc comparison (LSD), all the groups were different from the control (Table 7). […] On day 14, four days after the onset of the disease, sick mice lost an average of 2 g of weight. The average mean weight of GA-blocked mice was reduced by only 0.4 g. On day 23 the control group reached the lowest weight, 14.6 g."}, "[2]": {"tested_on": "chronic progressive EAE induced by pMOG35-55 in C57BL/6 mice", "experiment": "MOG-induced chronic progressive EAE in C57BL/6 mice, clinical scoring", "assay_type": "in vivo", "conditions": "GA blocking, dose 250 mg/kg, given with inoculum on day 0", "description": "MOG (Myelin oligodendrocyte glycoprotein) is a member of the immunoglobulin superfamily expressed exclusively in CNS myelin. It is one of the most encephalitogenic proteins and is widely used to induce EAE in different rodent strains. In C57BL/6 mice, immunization with the MOG peptide pMOG35-55 in CFA induces chronic progressive EAE. Ladostigil was tested in this model in order to assess its ability to inhibit the disease.\nEAE was induced by subcutaneous injection of encephalitogenic emulsion at a volume of 0.2 ml/mouse in the right flank. On the day of induction, pertussis toxin was injected intraperitoneally at a volume dose of 0.2 ml/mouse. The injection of the pertussis toxin was repeated after 48 hours. At the end of the experiment, 6-7 brains from control and the ladostigil groups were dissected and frozen at −70° C. for CHE (cholinesterase) determination and 6-7 brains were dissected and frozen for MAO (monoamine oxidase) determination. Before sacrifice, blood for ChE determination was taken on heparine, hemolysed 1/20 in 10 mM cold phosphate buffer pH=6.0 and stored at −70° C. until the assay.\n90 female C57Bl/6 mice 8-10 weeks old obtained from Harlan animal breeding center were used in the study. Mice were allocated randomly into 6 groups:\nBoth compounds were administered by gavage once daily during the whole experiment (30 days) at a volume of 0.2 ml/mouse.\nThe mice were observed daily from the 10th day post-EAE induction and the EAE clinical signs were scored. The scores were recorded on observation cards according to the grades described in Table 5:\nThe number of sick animals (animals with a score of ≧1 at any point) in each group was summed.\nThe incidence of disease and the % activity were calculated as follows: [formula] [formula] [formula]\nThe maximal scores of all mice in each group were summed.\nThe mean maximal score and the % activity of the group were calculated as follows: [formula] [formula] [formula]\nThe individual scores (IMS) of each of the mice during the observation period were summed (score 6 will be counted forward).\nThe GMS of the group and its % activity were calculated as follows: [formula] [formula] [formula]\nTheir dates of onset were calculated as day of termination +1."}}}
{"substance": "glatiramer acetate [GA, reference compound]", "values": [{"measurement": "Reduction of average mean weight", "setting": "[1]; GA-blocked mice, day 14", "result": 0.4, "unit": "g"}, {"measurement": "Weight of EAE mice", "setting": "[1]; day 2 after induction, GA blocking, dose 250 mg/kg", "result": "18.6 ± 0.8", "unit": "g"}, {"measurement": "Incidence", "setting": "[2]", "result": "14/15"}, {"measurement": "Mortality", "setting": "[2]", "result": "0/15"}, {"measurement": "% Inhibition", "setting": "[2]; vs control group mean score", "result": 54.6, "unit": "%"}]}
